This is an account of results in patent US9456619B1, “Control of caloric intake” (priority 2000, dated 2016).

For assay [1] the following is noted: rats, liquid diet ad libitum; effect appeared after first week; cited from earlier work.
For assay [2] the following is noted: flavored liquid food, ad libitum; cited from earlier work.
The text on assay [3]: To find out, a few days later I began drinking much more water than usual.
I was already measuring my weight regularly. I used three scales, to ensure that any weight change was not due to a changing scale.

Take `O=C1NS(=O)(=O)c2ccccc21` [saccharin]: the “weight gain versus same food without saccharin” value in assay [1] is recorded as “gained more weight”.
For the molecule `CC(=O)OC[C@H]1O[C@@](COC(C)=O)(O[C@H]2O[C@H](COC(C)=O)[C@@H](OC(C)=O)[C@H](OC(C)=O)[C@H]2OC(C)=O)[C@@H](OC(C)=O)[C@@H]1OC(C)=O` [sucrose octaacetate], in assay [2], the “weight gain versus rats eating unflavored solid food” value is listed as “gained more weight”.
For `O` [water], the weight rise entry in assay [3] (after reducing water intake from 5 to 3 liters/day) was “about 0.7 kg”. Besides, in assay [3] (water intake raised to 5 liters/day, over two weeks before weight stabilized), the weight lost result is “about 2.8 kg”.
